Literature values, collected in patent publication US7655257B2, “Sustained delivery of an active agent using an implantable system” (Intarcia Therapeutics, Inc., priority 1996, dated 2010).

Legend:
[1] = test system: prostatic tumors in Noble and Dunning male rats and DMBA-induced mammary tumors in female rats
[2] = continuous administration, humans

CCNC(=O)[C@@H]1CCCN1C(=O)[C@H](CCCNC(=N)N)NC(=O)[C@H](CC(C)C)NC(=O)[C@@H](CC(C)C)NC(=O)[C@H](Cc1ccc(O)cc1)NC(=O)[C@H](CO)NC(=O)[C@H](Cc1c[nH]c2ccccc12)NC(=O)[C@H](Cc1c[nH]cn1)NC(=O)[C@@H]1CCC(=O)N1 [Leuprolide acetate]
growth of hormone-dependent tumors [1]: inhibition of the growth | level of LH and FSH (gonadotropin secretion; [2]): decreased level of LH and FSH | testosterone in males (gonadotropin secretion; [2]): reduced to castrate levels | activity when given orally (gonadotropin secretion; oral): not active
